Reference: patent US20160368895A1, “PULMONARY HYPERTENSION TREATING AGENT” (THE UNIVERSITY OF TOKYO, priority 2013, published 2016)

Experiments:
[1] = target: T1, human PGI2 receptors (hIP) (Homo sapiens, UniProt P43119); test: Method C: effect on epoprostenol-cAMP production curve in CHO/hIP cells (left shift value); type: cell-based; conditions: Table 4, concentration of test compound that halves the EC50 of epoprostenol
T1 construct: expressed in transfected cells; host or cells: CHO-K1
Description: The effect of a test compound on the cAMP production curve with respect to the IP agonist epoprostenol (manufactured by GlaxoSmithKline) was investigated using CHO-K1 cells (CHO/hIP cells) in which human PGI2 receptors (hIP) are stably expressed.
(§1) An amount of 5 μL of a mixture (diluted in F-12 culture medium (manufactured by GIBCO) including 0.1% BSA) of epoprostenol dissolved in DMSO and a test compound dissolved in DMSO was dispensed in advance into a 384-well black microplate, and 5 μL of CHO/hIP cells suspended at a concentration of 1.4×10^6 cells/mL in F-12 culture medium including 0.1% BSA were added to the microplate. After 40 minutes of incubation at room temperature, the amount of cAMP was measured using a cAMP assay kit (cAMP HiRange, manufactured by Cisbio Bioassays). Specifically, 5 μL of a cAMP-d2 solution (including a cell lysate) from the kit were added and the reaction was stopped, then 5 μL of a fluorescence-labeled cAMP antibody solution from the kit were added and incubation was performed for 1 hour at room temperature, after which fluorescence was measured using a PHERAstar plate reader (manufactured by BMG) in HTRF (registered trademark) mode. The amount of cAMP in each well was calculated from a cAMP calibration curve obtained using a standard sample, and an epoprostenol-cAMP production curve for the presence of various concentrations of the test compound was created.

[2] = target: T1, human PGI2 receptors (hIP); test: Method B: positive allosteric modulator activity, cAMP in CHO/hIP cells with 1 nM epoprostenol; type: cell-based; conditions: cAMP relative to 1 nM epoprostenol alone
Description: The positive allosteric modulator activity of a test compound was measured as a change in the amount of intracellular cyclic AMP (cAMP) in the presence of 1 nM of the IP agonist epoprostenol (manufactured by GlaxoSmithKline), using CHO-K1 cells (CHO/hIP cells) in which human PGI2 receptors (hIP) are stably expressed.
as §1, with “and” for “and an epoprostenol-cAMP production curve for”, “activity” for “presence”, “each” for “various concentrations of the”, “is noted below as a ratio T/C (%) based on the amount of cAMP for 1 nM of epoprostenol alone.” for “was created.”

[3] = system: thoracic aorta of the marmot; test: Magnus test using a blood vessel removed from a marmot; conditions: 20 μM of test compound; FIG. 2
Description: An incision was made in the thoracic region of a marmot (slc/Harley, male, 11-12 weeks of age) under anesthesia, and the thoracic aorta of the marmot was removed. The vascular endothelium was removed using a thread, after which the blood vessel was cut into a round slice having a width of approximately 2 mm and fixed to a fixing rod using thread or a stainless steel hook, and placed in a 10 mL Magnus tube maintained at a temperature of 37° C. and saturated with a 95% O2/5% CO2 gas mixture, and a tension of 1 g was placed on the blood vessel. When the tension on the specimen became stable, phenylephrine (phenylephrine hydrochloride, PHE, manufactured by Sigma-Aldrich Japan, final concentration: 3×10^−6 mol/L) was added thereto to cause the specimen to contract, the test compound or a solvent was added when the contraction became stable, the IP agonist beraprost (beraprost sodium, manufactured by Cayman Chemical) was cumulatively added after 15 minutes to give a final concentration of 1 nM to 1000 nM, and the change in relaxation response was recorded.
The contraction inhibition rate for each set of data was calculated using a contraction rate of 100% as the control (DMSO addition).

[4] = target: T1, human PGI2 receptors (hIP); test: Method D: effect on cAMP production in human aortic smooth muscle cells (left shift value); type: cell-based; conditions: concentration of test compound that halves the EC50 of epoprostenol
Description: The effect of a test compound on the cAMP production curve with respect to the IP agonist epoprostenol (manufactured by GlaxoSmithKline) was investigated using human aortic smooth muscle cells known to express human PGI2 receptors (hIP).
as §1, with “created. […]” for “created.”

T1 sequence (P43119 whole entry): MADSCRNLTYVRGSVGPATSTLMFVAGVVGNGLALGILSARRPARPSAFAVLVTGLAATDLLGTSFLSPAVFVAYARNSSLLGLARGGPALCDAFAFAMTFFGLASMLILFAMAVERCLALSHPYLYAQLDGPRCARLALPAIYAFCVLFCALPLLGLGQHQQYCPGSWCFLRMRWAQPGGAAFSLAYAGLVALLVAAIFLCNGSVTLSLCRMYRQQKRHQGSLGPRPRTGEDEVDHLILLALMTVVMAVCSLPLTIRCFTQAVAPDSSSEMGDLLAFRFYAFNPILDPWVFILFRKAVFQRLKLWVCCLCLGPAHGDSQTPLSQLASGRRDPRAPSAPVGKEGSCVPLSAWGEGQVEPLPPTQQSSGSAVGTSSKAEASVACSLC

Row | Structure (SMILES) | left shift value [1] | T/C ([2]; test concentration 10 uM) | T/C ([2]; test concentration 5 uM) | enhancement of vasoconstriction inhibition (vasorelaxation) with respect to beraprost [3] | left shift value [4]
1 | Cc1ccc2c(c1)CN(C(c1ccccc1C)c1nnnn1C(C)(C)C)CC2 (centres unmarked) [Example 24] | 61.25 µM | 116.3% |  |  | 
2 | Cc1ccccc1C(c1nnnn1C(C)(C)C)N1CCc2ccccc2C1 (centres unmarked) [Example 25] | 5.5 µM | 177.2% |  |  | 
3 | CC(C)(C)n1nnnc1C(c1ccccc1N)N1CCc2ccccc2C1 (centres unmarked) [Example 26] | 163.7 µM | 105.5% |  |  | 
4 | Cc1ccc2c(c1)CN(C(c1ccccc1C)c1nnnn1C(C)(C)C)CC2 (centres unmarked) [Example 27] | 15.2 µM |  | 99.8% |  | 
5 | Cc1ccccc1C(c1nnnn1C(C)(C)C)N1CCc2c(Cl)cccc2C1 (centres unmarked) [Example 29] | 15.2 µM | 135.5% |  |  | 
6 | CC(C)(C)n1nnnc1C(c1ccccc1[N+](=O)[O-])N1CCc2ccc(F)cc2C1 (centres unmarked) [Example 30] | 269.8 µM | 100.4% |  |  | 
7 | CC(C)(C)n1nnnc1C(C1=CC=CC1)N1CCc2ccccc2C1 (centres unmarked) [Example 31] | 3.5 µM | 186.2% |  |  | 
8 | CC(C)(C)n1nnnc1C(C1=CCC=C1)N1CCc2ccccc2C1 (centres unmarked) [Example 32] | 8.4 µM | 153.8% |  |  | 
9 | CC(C)(C)n1nnnc1C(c1ccco1)N1CCc2ccccc2C1 (centres unmarked) [Example 33] | 38.4 µM | 119.7% |  |  | 
10 | CC(C)(C)n1nnnc1C(c1ccoc1)N1CCc2ccccc2C1 (centres unmarked) [Example 34] | 11.7 µM | 145.9% |  |  | 
11 | CC(C)(C)n1nnnc1C(c1ccc[nH]1)N1CCc2ccccc2C1 (centres unmarked) [Example 35] | 28.5 µM | 121.8% |  |  | 
12 | CC(C)(C)n1nnnc1C(c1c[nH]c2ccccc12)N1CCc2ccccc2C1 (centres unmarked) [Example 36] | 5.7 µM | 172.6% |  |  | 
13 | COc1cccc(OC)c1C(c1nnnn1C(C)(C)C)N1CCc2ccccc2C1 (centres unmarked) [Example 37] | 71.1 µM | 104.9% |  |  | 
14 | COc1cc(F)ccc1C(c1nnnn1C(C)(C)C)N1CCc2ccccc2C1 (centres unmarked) [Example 38] | 15.1 µM | 147.0% |  |  | 
15 | CC(C)(C)n1nnnc1C(c1ccccc1)N1CCc2ccccc2C1 (centres unmarked) [Example 39] | 12.3 µM | 144.4% |  |  | 
16 | Cc1ccccc1C(c1nnnn1C1(C)CCCCC1)N1CCc2ccccc2C1 (centres unmarked) [Example 42] | 14.5 µM | 142.5% |  |  | 
17 | COc1cc[nH]c1C(c1nnnn1C(C)(C)C)N1CCc2ccccc2C1 (centres unmarked) [Example 43] | 1.2 µM | 267.8% |  |  | 
18 | COc1csc(C(c2nnnn2C(C)(C)C)N2CCc3ccccc3C2)c1 (centres unmarked) [Example 44] | 7.7 µM |  | 143.8% |  | 
19 | COc1ccccc1C(c1nnnn1C1(C)CCCCCC1)N1CCc2ccccc2C1 (centres unmarked) [Example 45] | 5.7 µM |  | 144.3% |  | 
20 | Cc1ccccc1C(c1nnnn1C1(C)CCCCCC1)N1CCc2ccccc2C1 (centres unmarked) [Example 46] | 267.0 µM | 106.2% |  |  | 
21 | CSc1ccccc1C(c1nnnn1C1(C)CCCCCC1)N1CCc2ccccc2C1 (centres unmarked) [Example 47] | 25.4 µM | 121.9% |  |  | 
22 | COc1ccccc1C(c1nnnn1C(C)(C)C)N1CCc2ccccc2C1 (centres unmarked) [Example 51] | 4.3 µM |  |  | an enhancement of vasoconstriction inhibition (vasorelaxation) with respect to the IP agonist beraprost was recognized | 3.9 µM
23 | CC(C)(C)n1nnnc1C(c1ccccc1F)N1CCc2ccccc2C1 (centres unmarked) [Example 54] | 4.7 µM |  |  |  | 2.9 µM
24 | CCOc1ccccc1C(C1=NNCN1C(C)(C)C)N1CCc2ccc(O)cc2C1 (centres unmarked) [Example 56] | 117.3 µM | 101.0% |  |  | 
25 | CC(C)(C)n1nnnc1C(c1ccccc1O)N1CCc2ccccc2C1 (centres unmarked) [Example 57, 2-((1-tert-butyl-1H-tetrazol-5-yl)(3,4-dihydroisoquinolin-2(1H)-yl)methyl)phenol] | 1.4 µM | 256.5% |  |  | 
26 | CC(C)(C)n1nnnc1C(c1ccccc1N)N1CCc2ccccc2C1 (centres unmarked) [Example 58, 2-((1-tert-butyl-1H-tetrazol-5-yl)(3,4-dihydroisoquinolin-2(1H)-yl)methyl)aniline] | 78.3 µM | 102.7% |  |  | 
